Assays:
human FPR1 = biological target: T1, human FPR1 (Homo sapiens, UniProt P21462); experiment: FPR1 cyclic adenosine monophosphate (cAMP) assay; type: cell-based; conditions: CHO cells overexpressing human FPR1; inhibition of forskolin-stimulated cAMP production; read-out: hFPR1 cAMP EC50
T1 sequence (P21462 1-350): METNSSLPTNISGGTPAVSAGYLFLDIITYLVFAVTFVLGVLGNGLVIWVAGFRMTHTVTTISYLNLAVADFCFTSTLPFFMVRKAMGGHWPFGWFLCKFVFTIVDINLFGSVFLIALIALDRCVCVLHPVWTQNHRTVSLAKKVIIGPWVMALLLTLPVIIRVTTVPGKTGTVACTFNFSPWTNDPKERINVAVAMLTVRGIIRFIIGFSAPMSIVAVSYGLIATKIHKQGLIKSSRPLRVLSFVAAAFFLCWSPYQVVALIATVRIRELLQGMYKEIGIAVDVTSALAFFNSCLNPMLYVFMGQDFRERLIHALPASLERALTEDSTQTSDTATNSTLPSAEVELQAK
Description: (§1) FPR2 and FPR1 Cyclic Adenosine Monophosphate (cAMP) Assays. A mixture of forskolin (5 μM final for FPR2 or 10 μM final for FPR1) and IBMX (200 μM final) were added to 384-well Proxiplates (Perkin-Elmer) pre-dotted with test compounds in DMSO (1% final) at final concentrations in the range of 1.7 nM to 100 μM. Chinese Hamster Ovary cells (CHO) overexpressing human FPR1 or human FPR2 receptors were cultured in F-12 (Ham's) medium supplemented with 10% qualified FBS, 250 μg/ml zeocin and 300 μg/ml hygromycin (Life Technologies). Reactions were initiated by adding 2,000 human FPR2 cells per well or 4,000 human FPR1 cells per well in Dulbecco's PBS (with calcium and magnesium) (Life Technologies) supplemented with 0.1% BSA (Perkin-Elmer). The reaction mixtures were incubated for 30 min at room temperature. The level of intracellular cAMP was determined using the HTRF HiRange cAMP assay reagent kit (Cisbio) according to manufacturer's instruction. Solutions of cryptate conjugated anti-cAMP and d2 flurorophore-labelled cAMP were made in a supplied lysis buffer separately. Upon completion of the reaction, the cells were lysed with equal volume of the d2-cAMP solution and anti-cAMP solution. After a 1-h room temperature incubation, time-resolved fluorescence intensity was measured using the Envision (Perkin-Elmer) at 400 nm excitation and dual emission at 590 nm and 665 nm. A calibration curve was constructed with an external cAMP standard at concentrations ranging from 1 μM to 0.1 pM by plotting the fluorescent intensity ratio from 665 nm emission to the intensity from the 590 nm emission against cAMP concentrations. The potency and activity of a compound to inhibit cAMP production was then determined by fitting to a 4-parametric logistic equation from a plot of cAMP level versus compound concentrations.

human FPR2 = biological target: T2, human FPR2 (Homo sapiens, UniProt P25090); experiment: FPR2 cyclic adenosine monophosphate (cAMP) assay; type: cell-based; conditions: CHO cells overexpressing human FPR2; inhibition of forskolin-stimulated cAMP production; read-out: hFPR2 cAMP2 EC50
T2 sequence (P25090 1-351): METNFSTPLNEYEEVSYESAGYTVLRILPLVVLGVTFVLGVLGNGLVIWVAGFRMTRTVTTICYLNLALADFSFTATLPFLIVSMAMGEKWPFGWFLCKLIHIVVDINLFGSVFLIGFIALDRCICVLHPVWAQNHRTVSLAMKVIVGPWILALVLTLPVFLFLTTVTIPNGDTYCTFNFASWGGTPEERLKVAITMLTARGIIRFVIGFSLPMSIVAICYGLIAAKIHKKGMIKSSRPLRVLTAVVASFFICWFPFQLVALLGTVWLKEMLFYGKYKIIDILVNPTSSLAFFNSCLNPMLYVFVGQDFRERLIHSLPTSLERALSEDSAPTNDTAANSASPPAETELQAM
Description: as §1

Row | SMILES | EC50 (human FPR1) [nM] | EC50 (human FPR2) [nM]
1 | COc1cc(F)c([C@@H]2CNC(=O)[C@H]2NC(=O)NC2(c3cccc(Cl)n3)CC2)c(F)c1 [Example 1, 3-[1-(6-chloropyridin-2-yl)cyclopropyl]-1-[(3S,4R)-4-(2,6-difluoro-4-methoxyphenyl)-2-oxopyrrolidin-3-yl]urea] | 820 | 8.3
2 | COc1cc(F)c([C@@H]2CNC(=O)[C@H]2NC(=O)NC2(c3ccc(C)cc3)CC2)c(F)c1 [Example 2, 1-[(3S,4R)-4-(2,6-difluoro-4-methoxyphenyl)-2-oxopyrrolidin-3-yl]-3-[1-(4-methylphenyl)cyclopropyl]urea] | 660 | 33
3 | COc1cc(F)c([C@@H]2CNC(=O)[C@H]2NC(=O)NC2(c3ccc4ncccc4n3)CC2)c(F)c1 [Example 4, 1-[(3S,4R)-4-(2,6-difluoro-4-methoxyphenyl)-2-oxopyrrolidin-3-yl]-3-[1-(1,5-naphthyridin-2-yl)cyclopropyl]urea] | 1000 | 110
4 | COc1cc(F)c([C@@H]2CNC(=O)[C@H]2NC(=O)NC2(c3cccc(C(F)(F)F)c3)CC2)c(F)c1 [Example 19, 1-[(3S,4R)-4-(2,6-difluoro-4-methoxyphenyl)-2-oxopyrrolidin-3-yl]-3-{1-[3-(trifluoro-methyl)phenyl]cyclo-propyl}urea] | 2300 | 49
5 | COc1cc(F)c([C@@H]2CNC(=O)[C@H]2NC(=O)NC2(c3ccc4cc(Cl)ccc4n3)CC2)c(F)c1 [Example 53, 3-[1-(6-chloroquinolin-2-yl)cyclopropyl]-1-[(3S,4R)-4-(2,6-difluoro-4-methoxyphenyl)-2-oxopyrrolidin-3-yl]urea] | 430 | 12
6 | COc1cc(F)c([C@@H]2CNC(=O)[C@H]2NC(=O)NC2(c3ccc4cc(OC)ccc4c3)CC2)c(F)c1 [Example 63, 1-[(3S,4R)-4-(2,6-difluoro-4-methoxyphenyl)-2-oxopyrrolidin-3-yl]-3-[1-(6-methoxynaphthalen-2-yl)cyclopropyl]urea] | 1500 | 34
7 | COc1cc(F)c([C@@H]2CN(CCO)C(=O)[C@H]2NC(=O)NC2(c3ccc4ccccc4n3)CC2)c(F)c1 [Example 67, 1-[(3S,4R)-4-(2,6-difluoro-4-methoxyphenyl)-1-(2-hydroxyethyl)-2-oxopyrrolidin-3-yl]-3-[1-(quinolin-2-yl)cyclopropyl]urea] | 700 | 63
8 | COc1cc(F)c([C@@H]2CNC(=O)[C@H]2NC(=O)NC2(c3nc4ccc(C)cc4s3)CC2)c(F)c1 [Example 85, 1-[(3S,4R)-4-(2,6-difluoro-4-methoxyphenyl)-2-oxopyrrolidin-3-yl]-3-[1-(6-methyl-1,3-benzothiazol-2-yl)cyclopropyl]urea] | 1600 | 12
9 | COc1cc(F)c([C@@H]2CNC(=O)[C@H]2NC(=O)NC2(c3cccc(OCc4ccc5ccccc5c4)c3)CC2)c(F)c1 [Example 131, 1-[(3S,4R)-4-(2,6-difluoro-4-methoxyphenyl)-2-oxopyrrolidin-3-yl]-3-(l-{3-[(naphthalen-2-yl)methoxy]phenyl}cyclo-propyl)urea] | 1000 | 4

Now those with a lower EC50 (human FPR1), led by results:

Row | EC50 (human FPR1) [nM] | EC50 (human FPR2) [nM] | SMILES
10 | 66 | 5.7 | COc1cc(F)c([C@@H]2CN(C)C(=O)[C@H]2NC(=O)NC2(c3ccc4ccccc4n3)CC2)c(F)c1 [Example 8, 1-[(3S,4R)-4-(2,6-difluoro-4-methoxyphenyl)-1-methyl-2-oxopyrrolidin-3-yl]-3-[1-(quinolin-2-yl)cyclopropyl]urea]
11 | 320 | 6.4 | COc1cc(F)c([C@@H]2CNC(=O)[C@H]2NC(=O)NC2(c3ccc4ccccc4n3)CC2)c(F)c1 [Example 26, 1-[(3S,4R)-4-(2,6-difluoro-4-methoxyphenyl)-2-oxopyrrolidin-3-yl]-3-[1-(quinolin-2-yl)cyclopropyl]urea]
12 | 270 | 2.3 | COc1cc(F)c([C@@H]2CNC(=O)[C@H]2NC(=O)NC2(c3ccc(Cl)c(C)n3)CC2)c(F)c1 [Example 47, 3-[1-(5-chloro-6-methylpyridin-2-yl)cyclopropyl]-1-[(3S,4R)-4-(2.6-difluoro-4-methoxyphenyl)-2-oxopyrrolidin-3-yl]urea]
13 | 140 | 9.7 | COc1ccc([C@@H]2CNC(=O)[C@H]2NC(=O)NC2(c3cccc(Cl)n3)CC2)c(F)c1 [Example 48, 3-[1-(6-chloropyridin-2-yl)cyclopropyl]-1-[(3S,4R)-4-(2-fluoro-4-methoxyphenyl)-2-oxopyrrolidin-3-yl]urea]
14 | 200 | 1.7 | COc1cc(F)c([C@@H]2CNC(=O)[C@H]2NC(=O)NC2(c3ccc(C)c(Cl)c3)CC2)c(F)c1 [Example 50, 3-[1-(3-chloro-4-methylphenyl)cyclopropyl]-1-[(3S,4R)-4-(2,6-difluoro-4-methoxyphenyl)-2-oxopyrrolidin-3-yl]urea]
15 | 26 | 1.5 | COc1cc(F)c([C@@H]2CN(CC3CC3)C(=O)[C@H]2NC(=O)NC2(c3cccc(C)n3)CC2)c(F)c1 [Example 94, 1-((3S,4R)-1-(cyclopropylmethyl)-4-(2,6-difluoro-4-methoxyphenyl)-2-oxopyrrolidin-3-yl)-3-(1-(6-methylpyridin-2-yl)cyclopropyl)urea]
16 | 19 | 1.7 | CCCN1C[C@@H](c2c(F)cc(OC)cc2F)[C@H](NC(=O)NC2(c3ccc4ccccc4n3)CC2)C1=O [Example 95, 1-[(3S,4R)-4-(2,6-difluoro-4-methoxyphenyl)-2-oxo-1-propylpyrrolidin-3-yl]-3-[1-(quinolin-2-yl)cyclopropyl]urea]
17 | 120 | 2 | COc1cc(F)c([C@@H]2CNC(=O)[C@H]2NC(=O)NC2(c3nc4c(C(F)(F)F)cccc4s3)CC2)c(F)c1 [Example 96, 1-[(3S,4R)-4-(2,6-difluoro-4-methoxyphenyl)-2-oxopyrrolidin-3-yl]-3-{1-[4-(trifluoromethyl)-1,3-benzothiazol-2-yl]cyclopropyl}urea]
18 | 150 | 14 | COc1cc(F)c([C@@H]2CN(CC(F)(F)F)C(=O)[C@H]2NC(=O)NC2(c3cccc(C)n3)CC2)c(F)c1 [Example 110, 1-[(3S,4R)-4-(2,6-difluoro-4-methoxyphenyl)-2-oxo-1-(2,2,2-trifluoroethyl)pyrrolidin-3-yl]-3-[1-(6-methylpyridin-2-yl)cyclopropyl]urea]
19 | 280 | 25 | COc1cc(F)c([C@@H]2CN(Cc3nnc(C)o3)C(=O)[C@H]2NC(=O)NC2(c3cccc(C)n3)CC2)c(F)c1 [Example 115]

Reference: patent US11180490B2, “Cyclopropyl urea formyl peptide 2 receptor and formyl peptide 1 receptor agonists” (BRISTOL-MYERS SQUIBB COMPANY, priority 2017, dated 2021)
